Activity calls are given as the source filed them. No cut-off for these calls is given here.
Columns and labels:
[1] = biological target: Type-1 angiotensin II receptor (Homo sapiens) (UniProt P30556); experiment: Activity at human AT1 receptor at 10 uM
[2] = Half life in monkey at 1 mg/kg, iv by UPLC-MS analysis; assay type: ADME, organism-based, Macaca mulatta; conditions: rhesus monkey, in vivo
[3] = biological target: Alpha-2A adrenergic receptor (Homo sapiens) (UniProt P08913); experiment: Activity at human alpha2A receptor at 10 uM
[4] = biological target: Protein kinase C eta type (Homo sapiens) (UniProt P24723); experiment: Activity at human PKCeta at 10 uM
[5] = biological target: Muscarinic acetylcholine receptor M3 (Homo sapiens) (UniProt P20309); experiment: Activity at human M3 receptor at 10 uM
[6] = biological target: Cytochrome P450 1A2 (Homo sapiens, UniProt P05177); experiment: Inhibition of CYP1A2 in human liver microsomes up to 50 uM using phenacetin as substrate measured after 10 mins in presence of NADPH by LC-MS/MS analysis; assay type: ADME
[7] = biological target: Voltage-gated L-type calcium channel (Homo sapiens, UniProt Q13936+Q13698+Q01668+O60840); experiment: Activity at human L-type calcium channel at 10 uM; assay type: protein assay
[8] = biological target: Protein kinase C gamma type (Homo sapiens) (UniProt P05129); experiment: Activity at human PKCgamma at 10 uM
[9] = Dose normalized AUClast in monkey at 5 mg/kg, po administered via gavage by UPLC-MS analysis; assay type: ADME, organism-based, Macaca mulatta; conditions: rhesus monkey, in vivo
[10] = biological target: Protein kinase C beta type (Homo sapiens) (UniProt P05771); experiment: Activity at human PKCbeta2 at 10 uM
[11] = Volume of distribution at steady state in CD-1 mouse at 3 mg/kg, iv by UPLC-MS analysis; assay type: ADME, organism-based; conditions: in vivo, read-out: Vdss
[12] = biological target: Protein kinase C beta type (Homo sapiens) (UniProt P05771); experiment: Activity at human PKCbeta1 at 10 uM
[13] = AUClast in patient with advanced solid tumor at 40 mg, po administered once daily measured on day 15; assay type: ADME, organism-based; parameters: dose 40 mg, time 0 - last, route oral; conditions: human, in vivo
[14] = Volume of distribution at steady state in monkey at 1 mg/kg, iv by UPLC-MS analysis; assay type: ADME, organism-based, Macaca mulatta; conditions: rhesus monkey, in vivo, read-out: Vdss
[15] = organism: Homo sapiens; experiment: Activity at human Proteinase activated receptor at 10 uM
[16] = Clearance in monkey at 1 mg/kg, iv by UPLC-MS analysis; assay type: ADME, organism-based, Macaca mulatta; conditions: rhesus monkey, in vivo
[17] = Clearance in Beagle dog at 1 mg/kg, iv by UPLC-MS analysis; assay type: ADME, organism-based, Canis lupus familiaris; conditions: in vivo
[18] = biological target: Calcitonin gene-related peptide type 1 receptor (Homo sapiens) (UniProt Q16602); experiment: Activity at human CGRP1 at 10 uM
[19] = biological target: Serine/threonine-protein kinase D1 (Homo sapiens) (UniProt Q15139); experiment: Activity at human PKCmu at 10 uM
[20] = AUClast in patient with advanced solid tumor at 160 mg, po administered once daily measured on day 15; assay type: ADME, organism-based; parameters: dose 160 mg, time 0 - last, route oral; conditions: human, in vivo
[21] = Cmin in patient with advanced solid tumor at 120 mg, po administered once daily measured on day 15 measured after 24 hrs; assay type: ADME, organism-based; conditions: human, in vivo, read-out: Cmin
[22] = Half life in patient with advanced solid tumor at 40 mg, po administered once daily measured on day 15; assay type: ADME, organism-based; conditions: human, in vivo
[23] = biological target: Mu-type opioid receptor (Homo sapiens) (UniProt P35372); experiment: Activity at human mu opioid receptor at 10 uM
[24] = biological target: Voltage-gated inwardly rectifying potassium channel KCNH2 (Homo sapiens, UniProt Q12809); experiment: Inhibition of human ERG expressed in mammalian expression system by Q-patch clamp electrophysiology method
[25] = Cmax in patient with advanced solid tumor at 40 mg, po administered once daily measured on day 15; assay type: ADME, organism-based; parameters: dose 40 mg, route oral; conditions: human, in vivo
[26] = biological target: fMet-Leu-Phe receptor (Homo sapiens) (UniProt P21462); experiment: Activity at human FPR1 receptor at 10 uM
[27] = Plasma concentration in patient with advanced solid tumor at 120 mg, po administered once daily measured on day 15 after 24 hrs; assay type: ADME, organism-based; conditions: human
[28] = biological target: Calcium/calmodulin-dependent protein kinase type II subunit gamma (Homo sapiens) (UniProt Q13555); experiment: Activity at human CAMK2G at 10 uM
[29] = Plasma concentration in patient with advanced solid tumor at 20 mg, po administered once daily measured on day 15 after 24 hrs; assay type: ADME, organism-based; conditions: human
[30] = biological target: B2 bradykinin receptor (Homo sapiens) (UniProt P30411); experiment: Activity at human bradykinin B2 receptor at 10 uM
[31] = biological target: T1, Cyclin-dependent kinase 5/CDK5 activator 1 (Homo sapiens) (UniProt Q00535+Q15078); experiment: Activity at human CDK5/p35 at 10 uM; assay type: protein-complex assay
[32] = biological target: cGMP-dependent protein kinase 1 (Homo sapiens) (UniProt Q13976); experiment: Activity at human PKG1alpha at 10 uM
[33] = biological target: Tyrosine-protein kinase Lyn (Homo sapiens) (UniProt P07948); experiment: Activity at human Lyn at 10 uM
[34] = tested on: 786-0; experiment: Antitumor activity against human 786-O cells xenografted in SCID Beige mouse assessed as tumor regression at 0.3 to 3 mg/kg, po administered twice daily via gavage for 3 days measured 12 hrs post-last; assay type: functional, organism-based
[35] = biological target: Mitogen-activated protein kinase 1 (Homo sapiens) (UniProt P28482); experiment: Activity at human MAPK2 at 10 uM
[36] = biological target: Cyclin-dependent kinase 2/cyclin E1 (Homo sapiens) (UniProt P24864+P24941); experiment: Activity at human CDK2/cyclinE at 10 uM; assay type: protein-complex assay
[37] = biological target: T1, Cyclin-dependent kinase 5/CDK5 activator 1 (Homo sapiens); experiment: Activity at human CDK5/p25 at 10 uM; assay type: protein-complex assay
[38] = Toxicity in patient with advanced solid tumor assessed as anemia at 20 to 240 mg, po administered once daily; assay type: organism-based; conditions: human, in vivo
[39] = biological target: D(1A) dopamine receptor (Homo sapiens) (UniProt P21728); experiment: Activity at human D1 receptor at 10 uM
[40] = Lipophilicity, log D of the compound at pH 7.4; assay type: physicochemical; conditions: buffer
[41] = biological target: D(2) dopamine receptor (Homo sapiens) (UniProt P14416); experiment: Activity at human D2L receptor at 10 uM
[42] = biological target: Prostaglandin E2 receptor EP3 subtype (Homo sapiens) (UniProt P43115); experiment: Activity at human Prostanoid EP3 receptor at 10 uM
[43] = biological target: Potassium voltage-gated channel subfamily KQT member 1 (Homo sapiens, UniProt P51787); experiment: Activity at human KCNQ1 at 10 uM
[44] = biological target: Cysteinyl leukotriene receptor 1 (Homo sapiens) (UniProt Q9Y271); experiment: Activity at human CysLT1 receptor at 10 uM
[45] = AUClast in patient with advanced solid tumor at 120 mg, po administered once daily measured on day 15; assay type: ADME, organism-based; parameters: dose 120 mg, route oral, time 0 - last; conditions: human, in vivo
[46] = biological target: C-C chemokine receptor type 1 (Homo sapiens) (UniProt P32246); experiment: Activity at human CCR1 receptor at 10 uM
[47] = biological target: Alpha-1A adrenergic receptor (Homo sapiens) (UniProt P35348); experiment: Activity at human alpha1A receptor at 10 uM
[48] = Clearance in CD-1 mouse at 3 mg/kg, iv by UPLC-MS analysis; assay type: ADME, organism-based; conditions: in vivo

Sequence of Protein kinase C beta type (Homo sapiens) (P05771 2-671 limits assumed): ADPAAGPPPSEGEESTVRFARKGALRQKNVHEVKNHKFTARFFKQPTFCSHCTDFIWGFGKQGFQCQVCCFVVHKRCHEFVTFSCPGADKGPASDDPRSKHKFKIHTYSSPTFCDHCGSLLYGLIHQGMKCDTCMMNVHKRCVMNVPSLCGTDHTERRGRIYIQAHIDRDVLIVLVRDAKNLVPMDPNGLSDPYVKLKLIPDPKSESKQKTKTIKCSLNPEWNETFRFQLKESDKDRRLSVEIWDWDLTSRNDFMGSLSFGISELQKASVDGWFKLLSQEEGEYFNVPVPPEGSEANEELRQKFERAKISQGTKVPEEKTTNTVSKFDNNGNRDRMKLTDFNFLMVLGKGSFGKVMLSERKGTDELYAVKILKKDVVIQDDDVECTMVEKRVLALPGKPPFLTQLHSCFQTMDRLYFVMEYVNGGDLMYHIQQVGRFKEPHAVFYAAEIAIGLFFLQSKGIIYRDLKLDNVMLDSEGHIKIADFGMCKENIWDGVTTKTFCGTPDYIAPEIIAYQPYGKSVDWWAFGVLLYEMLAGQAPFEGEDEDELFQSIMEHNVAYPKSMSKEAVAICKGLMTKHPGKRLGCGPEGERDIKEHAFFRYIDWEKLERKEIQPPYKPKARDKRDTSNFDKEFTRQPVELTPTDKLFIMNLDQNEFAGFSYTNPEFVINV
T1 sequence (Q00535 whole entry): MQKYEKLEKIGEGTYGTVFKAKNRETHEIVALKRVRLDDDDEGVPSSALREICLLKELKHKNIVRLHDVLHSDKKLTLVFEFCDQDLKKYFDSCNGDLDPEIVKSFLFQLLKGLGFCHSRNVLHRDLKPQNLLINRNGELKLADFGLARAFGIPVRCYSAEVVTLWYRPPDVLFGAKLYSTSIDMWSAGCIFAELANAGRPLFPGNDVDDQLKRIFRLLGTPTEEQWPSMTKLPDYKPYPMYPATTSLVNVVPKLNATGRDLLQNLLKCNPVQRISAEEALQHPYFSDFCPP
T1 sequence (Q15078 99-307 partner limits assumed): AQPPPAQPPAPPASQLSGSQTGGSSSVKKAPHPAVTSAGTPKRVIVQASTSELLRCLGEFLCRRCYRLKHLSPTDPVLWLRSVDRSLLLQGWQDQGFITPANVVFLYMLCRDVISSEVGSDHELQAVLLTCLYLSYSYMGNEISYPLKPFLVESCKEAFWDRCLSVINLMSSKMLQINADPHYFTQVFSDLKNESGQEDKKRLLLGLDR
Sequence of Muscarinic acetylcholine receptor M3 (Homo sapiens) (P20309 whole entry, looked up): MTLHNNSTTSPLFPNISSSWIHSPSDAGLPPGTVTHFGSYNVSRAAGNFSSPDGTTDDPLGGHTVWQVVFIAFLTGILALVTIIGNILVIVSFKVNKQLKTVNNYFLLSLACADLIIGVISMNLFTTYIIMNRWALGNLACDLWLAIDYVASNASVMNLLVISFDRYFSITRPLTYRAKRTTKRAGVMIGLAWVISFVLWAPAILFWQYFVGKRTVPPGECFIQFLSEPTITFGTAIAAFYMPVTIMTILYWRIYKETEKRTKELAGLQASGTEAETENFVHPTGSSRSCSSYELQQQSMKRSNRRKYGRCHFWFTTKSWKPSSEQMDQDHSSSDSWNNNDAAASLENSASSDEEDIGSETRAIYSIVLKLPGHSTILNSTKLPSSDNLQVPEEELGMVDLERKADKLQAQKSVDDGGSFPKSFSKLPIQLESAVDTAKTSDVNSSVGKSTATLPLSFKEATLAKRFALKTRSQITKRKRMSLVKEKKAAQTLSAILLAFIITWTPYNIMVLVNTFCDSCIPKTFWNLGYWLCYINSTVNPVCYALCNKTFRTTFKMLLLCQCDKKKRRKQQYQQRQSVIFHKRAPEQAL
Sequence of Voltage-gated inwardly rectifying potassium channel KCNH2 (Q12809 whole entry): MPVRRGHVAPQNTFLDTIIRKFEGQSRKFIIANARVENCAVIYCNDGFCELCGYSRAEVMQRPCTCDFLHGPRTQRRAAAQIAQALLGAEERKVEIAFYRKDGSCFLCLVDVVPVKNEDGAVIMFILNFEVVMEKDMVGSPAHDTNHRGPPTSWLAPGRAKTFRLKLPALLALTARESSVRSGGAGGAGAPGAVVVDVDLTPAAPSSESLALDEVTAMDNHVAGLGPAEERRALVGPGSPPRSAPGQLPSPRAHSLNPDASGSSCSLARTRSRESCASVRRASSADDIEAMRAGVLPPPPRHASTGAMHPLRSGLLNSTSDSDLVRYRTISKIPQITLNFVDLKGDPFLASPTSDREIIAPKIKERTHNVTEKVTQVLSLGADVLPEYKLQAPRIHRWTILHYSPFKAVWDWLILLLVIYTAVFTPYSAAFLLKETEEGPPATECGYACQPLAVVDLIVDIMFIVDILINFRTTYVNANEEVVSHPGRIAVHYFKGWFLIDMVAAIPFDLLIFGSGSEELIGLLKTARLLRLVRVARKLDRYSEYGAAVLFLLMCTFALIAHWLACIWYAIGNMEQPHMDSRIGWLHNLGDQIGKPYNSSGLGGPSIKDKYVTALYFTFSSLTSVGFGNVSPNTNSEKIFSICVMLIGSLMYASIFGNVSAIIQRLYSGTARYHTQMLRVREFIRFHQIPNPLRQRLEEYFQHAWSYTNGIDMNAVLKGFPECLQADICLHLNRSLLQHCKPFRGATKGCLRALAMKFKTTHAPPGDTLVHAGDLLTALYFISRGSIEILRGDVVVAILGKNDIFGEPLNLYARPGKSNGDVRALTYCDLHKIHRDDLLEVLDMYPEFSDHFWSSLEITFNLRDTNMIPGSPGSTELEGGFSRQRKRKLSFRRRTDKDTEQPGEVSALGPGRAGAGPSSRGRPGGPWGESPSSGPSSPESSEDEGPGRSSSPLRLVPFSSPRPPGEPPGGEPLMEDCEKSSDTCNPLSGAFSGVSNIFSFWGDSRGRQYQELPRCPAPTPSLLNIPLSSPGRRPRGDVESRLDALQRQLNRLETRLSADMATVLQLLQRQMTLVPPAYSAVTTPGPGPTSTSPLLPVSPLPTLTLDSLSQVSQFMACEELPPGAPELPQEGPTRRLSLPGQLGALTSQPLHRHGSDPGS
Sequence of Potassium voltage-gated channel subfamily KQT member 1 (P51787 whole entry): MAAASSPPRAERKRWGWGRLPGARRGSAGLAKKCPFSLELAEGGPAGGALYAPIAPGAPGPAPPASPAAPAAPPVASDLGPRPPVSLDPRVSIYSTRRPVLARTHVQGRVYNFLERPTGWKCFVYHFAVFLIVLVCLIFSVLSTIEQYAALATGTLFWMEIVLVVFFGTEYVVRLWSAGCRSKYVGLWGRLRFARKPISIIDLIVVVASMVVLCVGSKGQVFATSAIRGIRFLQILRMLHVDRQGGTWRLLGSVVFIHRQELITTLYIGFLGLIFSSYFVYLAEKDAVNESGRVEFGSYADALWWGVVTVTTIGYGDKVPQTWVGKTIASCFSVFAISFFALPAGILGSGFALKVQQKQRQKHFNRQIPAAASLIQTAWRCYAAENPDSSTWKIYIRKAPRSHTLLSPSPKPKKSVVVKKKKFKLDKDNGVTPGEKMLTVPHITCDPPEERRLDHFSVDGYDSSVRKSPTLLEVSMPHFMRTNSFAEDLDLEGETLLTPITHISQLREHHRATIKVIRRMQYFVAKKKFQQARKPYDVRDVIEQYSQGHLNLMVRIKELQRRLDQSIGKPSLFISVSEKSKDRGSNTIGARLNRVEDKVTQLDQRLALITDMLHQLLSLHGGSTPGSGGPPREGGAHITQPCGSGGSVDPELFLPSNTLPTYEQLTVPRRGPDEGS
Sequence of Type-1 angiotensin II receptor (Homo sapiens) (P30556 whole entry): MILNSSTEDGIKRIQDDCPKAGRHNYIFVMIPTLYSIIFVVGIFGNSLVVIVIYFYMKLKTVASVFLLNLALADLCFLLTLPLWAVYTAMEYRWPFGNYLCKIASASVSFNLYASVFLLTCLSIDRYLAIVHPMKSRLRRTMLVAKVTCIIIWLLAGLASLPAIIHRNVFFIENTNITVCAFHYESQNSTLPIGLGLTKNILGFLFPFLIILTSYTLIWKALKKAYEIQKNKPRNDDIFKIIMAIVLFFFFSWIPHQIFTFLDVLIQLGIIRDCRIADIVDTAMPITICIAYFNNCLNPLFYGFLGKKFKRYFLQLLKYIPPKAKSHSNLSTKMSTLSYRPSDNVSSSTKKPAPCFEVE
Sequence of Cysteinyl leukotriene receptor 1 (Homo sapiens) (Q9Y271 whole entry): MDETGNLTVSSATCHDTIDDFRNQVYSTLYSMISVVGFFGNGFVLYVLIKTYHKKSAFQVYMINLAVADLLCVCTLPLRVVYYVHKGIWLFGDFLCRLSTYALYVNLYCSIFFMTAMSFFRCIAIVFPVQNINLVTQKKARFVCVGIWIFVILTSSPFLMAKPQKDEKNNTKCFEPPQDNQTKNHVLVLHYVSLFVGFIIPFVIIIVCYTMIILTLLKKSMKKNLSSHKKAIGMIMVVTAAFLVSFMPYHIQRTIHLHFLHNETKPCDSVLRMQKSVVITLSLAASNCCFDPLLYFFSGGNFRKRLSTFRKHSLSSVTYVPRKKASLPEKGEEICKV
Sequence of Prostaglandin E2 receptor EP3 subtype (Homo sapiens) (P43115 whole entry): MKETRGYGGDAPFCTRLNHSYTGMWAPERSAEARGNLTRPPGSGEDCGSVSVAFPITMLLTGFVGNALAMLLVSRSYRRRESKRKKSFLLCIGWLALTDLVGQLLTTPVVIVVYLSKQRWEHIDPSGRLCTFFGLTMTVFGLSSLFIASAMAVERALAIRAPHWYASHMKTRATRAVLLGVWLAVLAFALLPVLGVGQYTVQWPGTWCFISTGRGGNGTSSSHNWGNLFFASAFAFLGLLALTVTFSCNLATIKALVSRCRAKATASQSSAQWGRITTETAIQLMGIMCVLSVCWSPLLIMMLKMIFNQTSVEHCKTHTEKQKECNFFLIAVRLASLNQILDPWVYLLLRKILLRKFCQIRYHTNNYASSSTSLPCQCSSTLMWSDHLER

For CS(=O)(=O)c1ccc(Oc2cc(F)cc(C#N)c2)c2c1[C@H](O)[C@H](F)[C@@H]2F [BELZUTIFAN], the Activity [1] was “inactive”, the half-life [2] was 9.2 h and the Activity [3] was “inactive”. For the same compound, the Activity [4] was “inactive”, the Activity [5] was “inactive” and the “inhibition (INH)” value [6] was “Not Active”. The Activity [7] was “Not Active”, the Activity [8] was “inactive” and the AUClast/dose [9] was 31 µM·h. The Activity [10] was “inactive”, the Vd [11] was 4.9 L/kg and the Activity [12] was “inactive”. For the same compound, the AUC(0-t) [13] was 7100 ng·h/mL, the Vd [14] was 2.9 L/kg and the Activity [15] was “inactive”. For the same compound, the clearance [16] was 3.5 mL/min/kg, the clearance [17] was 1.3 mL/min/kg and the Activity [18] was “inactive”. The Activity [19] was “inactive”, the AUC(0-t) [20] was 21000 ng·h/mL and the concentration at 24 h [21] was 500 ng/mL. The half-life [22] was 18.8 h, the Activity [23] was “inactive” and the IC50 [24] was over 50 µM. The Cmax [25] was 500 ng/mL, the Activity [26] was “inactive” and the concentration at 24 h [27] was 710 ng/mL. For the same compound, the Activity [28] was “inactive”, the concentration at 24 h [29] was 60 ng/mL and the Activity [30] was “inactive”. The Activity [31] was “inactive”, the Activity [32] was “inactive” and the Activity [33] was “inactive”. The Activity [34] was “Active”, the Activity [35] was “inactive” and the Activity [36] was “inactive”. For the same compound, the Activity [37] was “inactive”, the Activity [38] was “Non-Toxic” and the Activity [39] was “inactive”. For the same compound, the logD [40] was 1.2, the Activity [41] was “inactive” and the Activity [42] was “inactive”. The Activity [43] was “Not Active”, the Activity [44] was “inactive” and the AUC(0-t) [45] was 25900 ng·h/mL. For the same compound, the Activity [46] was “inactive”, the Activity [47] was “inactive” and the clearance [48] was 21 mL/min/kg.

From ChEMBL document CHEMBL4311943, “3-[(1S,2S,3R)-2,3-Difluoro-1-hydroxy-7-methylsulfonylindan-4-yl]oxy-5-fluorobenzonitrile (PT2977), a Hypoxia-Inducible Factor 2α (HIF-2α) Inhibitor for the Treatment of Clear Cell Renal Cell Carcinoma” (J Med Chem, 2019)
